Values joined by “and” are separate entries in the source; they are usually repeats but may differ in a detail not shown here. Identical values can stand only once. Like-named read-outs stand apart in the source and are kept apart here.
How the values were obtained:
[1] = tested on: Hyp1-Nluc parasites; test: Egress, invasion & recovery assay (Nluc bioluminescence, smears); format: cell-based, Plasmodium falciparum; settings: W-991 60 nM
Excerpt: To measure egress, invasion, and follow-up recovery in the presence of different compounds, we adapted the method developed in[11], using Hyp1-Nluc parasites. A full description is in the Supplementary Information. […]
and compound 4. Note that M-833 was first purchased from MolPort (MolPort -002-267-916) then made in-house at WEHI: the differences observed in EC50s across experiments are attributed to the different batches of M -833. […]
Egress, invasion & recovery assay. To measure egress, invasion and follow up recovery in the presence of different compounds, we adapted the method developed in6, using Hyp1-Nluc parasites7. These parasites episomally express the exported PEXEL protein Hyp1 (PF3D7_0113300) tagged with a NanoLuc luciferase (NLuc) and were selected with 2.5 nM WR99210 (Jacobus). Highly synchronised schizonts were obtained using ML10 (LifeArc) and sorbitol synchronisation, and Percoll-purified (the culture was gently layered over 67% Percoll (Cytiva) in RPMI, and centrifuged for 15 min at 1500 g and the schizont layer was collected and washed). In a 96-well plate, […]
cultures were set up in 4 replicates (3 replicates for the Nluc readout, and one replicate for Giemsa smears) with 1-2% parasitemia, 2% haematocrit, with the following […]
100 μg/ml heparin (Sigma) and 10 μM E64 (Sigma). The schizonts were allowed to egress and invade for 4 h at 37°C. A “background” plate without treatment was left in the fridge during this time. After 4 h, cultures were sorbitol -treated to eliminate schizonts that have not egressed. Smears were made every day for the following 3 days, and 5 μL of the resuspended cultures were taken to measure Nluc activity (to assess parasite’s presence). To measure Nluc activity, 5 μL culture were added to 45 μL NanoGlo reagent (1x Promega lysis buffer and NanoGlo reagent; Promega). The average luminescence of the background cultures was subtracted to the average luminescence of each sample. […]
The viable parasite value was then expressed in log units and parasite reduction ratio was calculated as a decrease in […]

[2] = tested on: CR-WT parasites; test: Growth inhibition assay (72 h, LDH activity); format: cell-based, Plasmodium falciparum; settings: for EC50: n = 3
Procedure: Parasite growth assays with inhibitory compounds were performed as per[11] and are fully described in the Supplementary Information.
Molecular biology and transfection of P. falciparum: CRISPR method.
The full 5’ homology region of pfstart1 (either WT, N309K or N330K) was amplified from pPfSTART1-HA-2A-Neo-glmS with the same 5’ BglII primer and a new 3’ primer that replaced with PstI with SpeI and introduced a stop codon. The PCR product was then digested with BglII and SpeI and inserted into similarly digested p1.2 parasite vector2. The p1.2 vector had previously been inserted with a homology region amplified from the 3’ end of the pfstart1 gene (3’HB) to form a second homology block for double recombination. The primers used to amplify 3’HB are listed primers listed in […]
60 μg of p1.2-PfSTART1(WT/N309K/N330K) plasmid was linearised with KasI, precipitated in 3 M sodium acetate and ethanol (70% final concentration) overnight at -20°C. The DNA pellet was washed in cold 70% ethanol and resuspended in cytomix 3.
50 μ M of crRNA ( Table S 2) and 50 μM of tracRNA (Integrated DNA Technologies) were allowed to form a duplex (5 min at 95°C), and Cas9 enzyme (Integrated DNA Technologies) was added, and incubated for 20 min at room temperature 4. This crRNA -tracRNA -Cas9 mix was added to each DNA preparation and transfected to 3D7 ring parasites using the Bio -Rad Gene Pulser at 310 V and 950 μF.
Parasites containing the transfected DNA were selected using 2.5 nM WR99210 (Jacobus). Parasites lines were cloned using limiting dilution. Correct integration was tested by PCR (using primer START_5’UTR.F and START_Int.R1 , Table S 2), and sequencing was done using the primers START_3F and START_Int.R2 (Table S 2).
Growth inhibition assays. Synchronised ring-stage parasites (0.3-0.6% parasitemia, 2% haematocrit) were grown for 72 h in a serial-dilution of the compound under […]
and compound 4. Note that M-833 was first purchased from MolPort (MolPort -002-267-916) then made in-house at WEHI: the differences observed in EC50s across experiments are attributed to the different batches of M -833. For some experiments, 0, 0.25 or 2.5 mM of glucosamine (GlcN) was also added. Experiments were set up in technical duplicates or triplicates. Following a freeze -thaw cycle, lactate dehydrogenase (LDH) activity was assessed as an indicator of parasite growt h 5. 30 μL of parasite culture was incubated for 30 min in the dark with 75 μL Malstat mixture (0.1 M Tris pH 9.0, 20 g/L lactic acid, pH 7.5, 0.2% Triton-X100, 0.5 g/L acetylpyridine adenine dinucleotide (APAD, Sigma), 200 μg/mL nitroblue tetrazolium (NBT; Sigma), 1 μg/mL phenozine ethosulfate (PES; Sigma)). Absorbance was then measured at 650 nm, transformed using the formula below, plotted against the logarithm of the concentrations, and a non-linear regression (log(inhibitor) vs. response, variable slope) was calculated using GraphPad Prism to assess the half-inhibitory […]
Growth inhibition % = (1 − average(sample)− average(uRBC)) ∗ 100 […]
The DMSO samples were also used to assess growth of parasite in the presence of 0.25 and 2.5 mM GlcN (normalised by DMSO in 0 mM GlcN). […]

**Q.** For `Cc1cc(Cl)c(S(=O)(=O)N2CCCC2)cc1OCC(=O)NC1CCCCC1` [M-833], which “parasite morphology at 72 h after 4 h treatment” value ([1]; M-833 2 µM, Giemsa smears) is on record?
**A.** resembled the dysmorphic ring-stage parasites

**Q.** What about the “parasite growth (Nluc bioluminescence) followed 72 h after 4 h treatment” value ([1]; schizonts treated 4 h: M-833 2 µM, ML10 30 nM, E64 10 µM, heparin 100 µg/mL, then washed off) of the same molecule?
**A.** virtually no recovery after three days

**Q.** What about the “Growth inhibition assay, NORMALISED” value ([2]; CR-WT, 0 mM GlcN, conc 41.1523 nM) of the same molecule?
**A.** 25.7439 and 21.0208

**Q.** What about the “Growth inhibition assay, NORMALISED” value ([2]; CR-WT, 0 mM GlcN, conc 123.457 nM) of the same molecule?
**A.** 61.3173 and 56.525

**Q.** And the “Growth inhibition assay, NORMALISED” value ([2]; CR-WT, 0 mM GlcN, conc 370.37 nM)?
**A.** 82.8843

**Q.** And the “Growth inhibition assay, NORMALISED” value ([2]; CR-WT, 0 mM GlcN, conc 1111.11 nM)?
**A.** 89.7059

**Q.** And the “Growth inhibition assay, NORMALISED” value ([2]; CR-WT, 0 mM GlcN, conc 3333.33 nM)?
**A.** 91.3866

**Q.** And the “Growth inhibition assay, NORMALISED” value ([2]; CR-WT, 0 mM GlcN, conc 10000 nM)?
**A.** 91.9797

**Q.** And the “NORMALISED (growth inhibition, LDH absorbance vs DMSO and uRBC)” value ([2]; CR-WT, 0.25 mM GlcN, M833 dilution point 1 of 10 (starting concentration 10 uM))?
**A.** 91.6378 and 97.2065 and 92.208

**Q.** And the “NORMALISED (growth inhibition, LDH absorbance vs DMSO and uRBC)” value ([2]; CR-WT, 0.25 mM GlcN, M833 dilution point 2 of 10 from 10 uM start)?
**A.** 88.8272 and 91.5474 and 95.4251

**Q.** What about the “NORMALISED (growth inhibition, LDH absorbance vs DMSO and uRBC)” value ([2]; CR-WT, 0.25 mM GlcN, M833 dilution point 3 of 10 from 10 uM start) of the same molecule?
**A.** 89.2783 and 89.1988 and 95.5364

**Q.** What about the “NORMALISED (growth inhibition, LDH absorbance vs DMSO and uRBC)” value ([2]; CR-WT, 0.25 mM GlcN, M833 dilution point 4 of 10 from 10 uM start) of the same molecule?
**A.** 88.272 and 87.9755 and 93.8563

**Q.** What about the “NORMALISED (growth inhibition, LDH absorbance vs DMSO and uRBC)” value ([2]; CR-WT, 0.25 mM GlcN, M833 dilution point 5 of 10 from 10 uM start) of the same molecule?
**A.** 75.3643 and 67.6575 and 81.1437

**Q.** What about the “NORMALISED (growth inhibition, LDH absorbance vs DMSO and uRBC)” value ([2]; CR-WT, 0.25 mM GlcN, M833 dilution point 6 of 10 from 10 uM start) of the same molecule?
**A.** 45.0382 and 30.6544 and 52.9049

**Q.** And the “NORMALISED (growth inhibition, LDH absorbance vs DMSO and uRBC)” value ([2]; CR-WT, 2.5 mM GlcN, M833 dilution point 1 of 10 (starting concentration 10 uM))?
**A.** 89.8305 and 92.5684 and 90.1213

**Q.** What about the “NORMALISED (growth inhibition, LDH absorbance vs DMSO and uRBC)” value ([2]; CR-WT, 2.5 mM GlcN, M833 dilution point 2 of 10 from 10 uM start) of the same molecule?
**A.** 86.1896 and 88.6745 and 91.3765

**Q.** And the “NORMALISED (growth inhibition, LDH absorbance vs DMSO and uRBC)” value ([2]; CR-WT, 2.5 mM GlcN, M833 dilution point 3 of 10 from 10 uM start)?
**A.** 89.5794 and 86.621 and 91.7037

**Q.** What about the “NORMALISED (growth inhibition, LDH absorbance vs DMSO and uRBC)” value ([2]; CR-WT, 2.5 mM GlcN, M833 dilution point 4 of 10 from 10 uM start) of the same molecule?
**A.** 86.2524 and 82.3118 and 91.2012

**Q.** What about the “NORMALISED (growth inhibition, LDH absorbance vs DMSO and uRBC)” value ([2]; CR-WT, 2.5 mM GlcN, M833 dilution point 5 of 10 from 10 uM start) of the same molecule?
**A.** 84.1808 and 81.8139 and 88.9226

**Q.** What about the “NORMALISED (growth inhibition, LDH absorbance vs DMSO and uRBC)” value ([2]; CR-WT, 2.5 mM GlcN, M833 dilution point 6 of 10 from 10 uM start) of the same molecule?
**A.** 79.5355 and 74.3155 and 81.4326

**Q.** What about the “NORMALISED (growth inhibition, LDH absorbance vs DMSO and uRBC)” value ([2]; CR-WT, 2.5 mM GlcN, M833 dilution point 7 of 10 from 10 uM start) of the same molecule?
**A.** 64.0929 and 56.4406 and 58.0509

**Q.** And the “NORMALISED (growth inhibition, LDH absorbance vs DMSO and uRBC)” value ([2]; CR-WT, 2.5 mM GlcN, M833 dilution point 8 of 10 from 10 uM start)?
**A.** 44.6955 and 44.5084 and 37.5789

**Q.** What about the “NORMALISED (growth inhibition, LDH absorbance vs DMSO and uRBC)” value ([2]; CR-WT, 2.5 mM GlcN, M833 dilution point 9 of 10 from 10 uM start) of the same molecule?
**A.** 25.0175 and 29.9435 and 28.2047

**Q.** What about the “NORMALISED (growth inhibition, LDH absorbance vs DMSO and uRBC)” value ([2]; CR-WT, 2.5 mM GlcN, M833 dilution point 10 of 10 from 10 uM start) of the same molecule?
**A.** 14.8750 and 11.4878 and 17.8749

**Q.** What about the EC50 ([2]; Plasmodium falciparum, 72 h, Fig 2D, CR-WT, 72 h, read-out: EC50 (95% confidence interval)) of the same molecule?
**A.** 0.0512 µM

**Q.** What about the inhibition at 0.37037 µM ([2]; Plasmodium falciparum, CR-WT, 0 mM GlcN, conc 370.37 nM, read-out: Growth inhibition assay, NORMALISED) of the same molecule?
**A.** 88.3%

**Q.** And the inhibition at 1.11111 µM ([2]; Plasmodium falciparum, CR-WT, 0 mM GlcN, conc 1111.11 nM, read-out: Growth inhibition assay, NORMALISED)?
**A.** 91.9%

**Q.** And the inhibition at 3.33333 µM ([2]; Plasmodium falciparum, CR-WT, 0 mM GlcN, conc 3333.33 nM, read-out: Growth inhibition assay, NORMALISED)?
**A.** 91.6%

**Q.** What about the inhibition at 10 µM ([2]; Plasmodium falciparum, CR-WT, 0 mM GlcN, conc 10000 nM, read-out: Growth inhibition assay, NORMALISED) of the same molecule?
**A.** 93.5%

**Q.** And the EC50 ([2]; Plasmodium falciparum, read-out: EC50 M-833 (95% confidence interval), Fig 3F, CR-WT, 0.25 mM GlcN)?
**A.** 0.0396 µM

**Q.** What about the EC50 ([2]; Plasmodium falciparum, read-out: EC50 M-833 (95% confidence interval), Fig 3F, CR-WT, 2.5 mM GlcN) of the same molecule?
**A.** 0.00658 µM

**Q.** And the “fold reduction of EC50 on addition of 2.5 mM GlcN” value ([2]; {})?
**A.** 7.8 fold

Reference: PMC11189555, “Aryl amino acetamides prevent Plasmodium falciparum ring development via targeting the lipid-transfer protein PfSTART1” (Nature Communications, 2024)
